Source: the NIST ThermoML archive (doi:10.1021/je3013414)
± gives the expanded uncertainty stated by the source.

What was measured:
[1] = refractive index (Na D-line) (dimensionless); conditions: 298.15 K; 101.33 kPa; Liquid; Standard Abbe refractometry
[2] = 101.33 kPa, Liquid, Vibrating tube method

| refractive index [1] | mass density ([2]; 303.15 K) | mass density ([2]; 313.15 K) | mass density ([2]; 323.15 K) | mass density ([2]; 333.15 K) | mass density ([2]; 343.15 K) | mass density ([2]; 353.15 K) | mass density ([2]; 363.15 K) | Structure (SMILES) |
| --- | --- | --- | --- | --- | --- | --- | --- | --- |
| 1.4106 ± 0.0005 | 1361.3 ± 1.7 kg/m3 | 1353 ± 1.6 kg/m3 | 1344.8 ± 1.6 kg/m3 | 1336.7 ± 1.6 kg/m3 | 1328.5 ± 1.6 kg/m3 | 1320.5 ± 1.6 kg/m3 | 1312.4 ± 1.5 kg/m3 | CCCCn1cc[n+](C)c1.F[P-](F)(F)(F)(F)F [1-butyl-3-methylimidazolium hexafluorophosphate] |
| 1.4106 ± 0.0005 | 1233.7 ± 1.4 kg/m3 | 1226.9 ± 1.3 kg/m3 | 1220.2 ± 1.3 kg/m3 | 1213.6 ± 1.3 kg/m3 | 1207 ± 1.3 kg/m3 | 1200.4 ± 1.3 kg/m3 | 1193.9 ± 1.3 kg/m3 | CCOS(=O)(=O)[O-].CCn1cc[n+](C)c1 [1-ethyl-3-methylimidazolium ethyl sulfate] |
